This note sets out measurements from patent EP0290583B1, “$g(a) OLIGONUCLEOTIDES” (CENTRE NATIONAL DE LA RECHERCHE SCIENTIFIQUE (CNRS), priority 1986, dated 1988).

In one assay the test system is β-d^5' [AGATTTGAG]^3'. Description: Half-dissociation temperature (T 1/2) of the hybridisation complex with a parallel complementary beta strand. The assay is classed as binding. The settings on record: 10 mM cacodylate de sodium/0,1M NaCl, pH = 7, 10 µM. From the text: (§1) Les nouveaux produits de formule générale (I) selon l'invention et les produits de formule générale (I) dans laquelle L représente un atome d'oxygène, R et R' représentent chacun un atome d'hydrogène et B représente un base nucléique naturelle forment des complexes d'hybridation avec les séquences complémentaires d'ARN beaucoup plus stables que ceux qui sont formés avec l'ADN. La stabilité peut être mesurée par la température de demi-transition des complexes (T 1/2) lors d'une élévation de température. Les valeurs de T 1/2 sont déterminées à la concentration de 10⁻⁵M en α -oligonucléotide dans un tampon à pH = 7 contenant du cacodylate de sodium (10⁻²M) et du chlorure de sodium (0,1 M). Les résultats sont rassemblés dans les Tableaux I.
(§2) Dans les hybrides formés par les dérivés des α-oligonucléotides selon l'invention avec les séquences d'acides nucléiques complémentaires les deux brins possèdent généralement la même orientation.

A further assay has as its system β-d^5'[GAGTTTAGA]^3'. Description: Complex formation with the antiparallel beta strand. The assay is classed as binding. Conditions: antiparallel sequence; 10 mM cacodylate de sodium/0,1M NaCl, pH = 7, 10 µM.
Text: as §1, §2

The subject of assay [1] is β-d^5' (ApCpGpGpApApTpApTpApGpC]^3'. Description: Half-dissociation temperature (T 1/2) of the hybridisation complex with a parallel complementary beta strand. Format: binding. The settings on record: 10 mM cacodylate de sodium/0,1M NaCl, pH = 7, 10 µM.
Text: as §1, §2

Assay [2] deals with fragment d'ADN simple brin (10 nM) de séquence d(^5'TGAGTGAGTAAAAAAAATGAGTGCCAA^3'). The assay can be described thus: Specific cleavage of single-stranded DNA by a phenanthroline-coupled alpha-oligonucleotide. Conditions: 5µM, sulfate cuivrique (1µM), acide β-mercaptopropionique (1 mM), 0°C, 3 heures. Format: biochemical. How it is done: (§3) L'α-D-oligonucléotide décrit à l'exemple XIV (5µM) est dissous dans un tampon à pH 7 contenant 10 mM cacodylate de sodium et 0,1 M NaCl. […] Du sulfate cuivrique (1µM) et de l'acide β-mercaptopropionique (1 mM) sont ajoutés à 0°C et le mélange est incubé à 0°C pendant 3 heures. De la bathocuproine est ajoutée pour arrêter la réaction. Le mélange est disposé sur un gel de polyacrylamide à 18 % et soumis à l'électrophorèse.

The subject of assay [3] is fragment d'ADN double brin. Description: Specific cleavage of double-stranded DNA by a phenanthroline-coupled alpha-oligonucleotide. The assay is classed as biochemical. Conditions: en présence de 1 mM spermine. The method, then:
as §3
La position des sites de coupure sur le double brin indique que l'α-D-oligothymidylate XIV est orienté parallèlement au brin contenant la séquence A₈.

Consider Acr(CH₂)₅ α-d^5'[TCTAAACTC]^3', for which the “température de demi-dissociation (T 1/2)” value in the assay with β-d^5' [AGATTTGAG]^3' came out at 27 °C. Also, the “complexe mis en évidence au-dessus de 0°C” value with β-d^5'[GAGTTTAGA]^3' is “Aucun complexe”.

As to “[Acr(CH₂)₅]α-d(pCpCpTpTpApTpApTpT) [Acr(CH₂)₅-α-d^5' [pCpCpTpTpApTpApTpT]^3']”, the “température de demi-dissociation (T 1/2)” value in assay [1] is 35 °C.

Take (Phe-CH₂)α-[(sp)(Tp)₇T] [XIV]: the “coupure de l'ADN simple brin (sites de coupures)” value in assay [2] is on record as “sites de coupures sont révélés”. In addition, the “coupure de l'ADN double brin” value in assay [3] is listed as “induit des coupures sur les deux brins de la double hélice”.
